Measured values as given in patent publication US11485751B2, “Apramycin derivatives” (WAYNE STATE UNIVERSITY, priority 2017, dated 2022).
pIC50: −log10 of the molar value. ≈ marks a conversion by molar mass, not a printed value. Like-named read-outs stand apart in the source and are kept apart here.

What was measured:
[1] = tested on: Engineered E. coli pH426 rmtC; assay: Activity against G1405-methylated 16S-rRNA, E. coli pH426 rmtC; assay type: cell-based
Description: (§1) Minimal inhibitory concentrations (MIC) have been determined by broth microdilution assays (CLSI. Methods for Dilution Antimicrobial Susceptibility Tests for Bacteria That Grow Aerobically; Approved Standard—Tenth Edition. CLSI document M07-A10. Wayne, Pa.: Clinical and Laboratory Standards Institute; 2015.).

[2] = tested on: AG215, Klebsiella pneumonia; assay: MIC reference strain AG215; assay type: cell-based; settings: reference strain
Summary of the method: (§2)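 Compounds serially diluted in broth, bacteria added, growth inhibition scored; the lowest inhibitory concentration is taken as MIC, following CLSI procedures.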

[3] = tested on: AG173 E. coli AAC(3)-IV; assay: Antibacterial activity, clinical isolate AG173; assay type: cell-based
Summary of the method: (§3)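 Compounds are serially diluted in liquid medium in microplates, bacteria are added, and the lowest concentration preventing growth is recorded as the MIC (CLSI procedure).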

[4] = tested on: Engineered E. coli pH427 rmtF; assay: Activity against G1405-methylated 16S-rRNA, E. coli pH427 rmtF; assay type: cell-based
Description: as §1

[5] = tested on: AG220, Pseudomonas aeruginosa ATCC27853; assay: MIC reference strain AG220; assay type: cell-based
Summary of the method: as §2

[6] = tested on: Engineered E. coli pH430 WT; assay: Activity, engineered E. coli pH430 WT; assay type: cell-based; set-up: unit not given here; settings: wild type
Summary of the method: (§4)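 Strains are tested by broth microdilution under the CLSI M07-A10 procedure. The lowest inhibitory concentration is recorded as the MIC.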

[7] = tested on: human cytosolic ribosomes; assay: in-vitro translation assay, human cytosolic ribosomes; assay type: biochemical
Summary of the method: (§5)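 Reported values are IC50s for inhibition of in-vitro translation. For the mitochondrial target, human chimeric ribosomes were used. For the cytosolic target, rabbit reticulocyte ribosomes were used.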

[8] = tested on: AG038 MRSA; assay: Antibacterial activity, clinical isolate AG038; assay type: cell-based; set-up: unit not given here
Summary of the method: as §3

[9] = tested on: human mitochondrial ribosomes; assay: in-vitro translation assay, human mitochondrial (human chimeric) ribosomes; assay type: biochemical
Summary of the method: as §5

[10] = tested on: ATCC19977 M. abcessus; assay: MIC reference strain ATCC19977; assay type: cell-based
Summary of the method: as §3

[11] = tested on: AG290, Enterobacter cloacae; assay: MIC reference strain AG290; assay type: cell-based; settings: reference strain
Summary of the method: as §2

[12] = tested on: clinical isolates carrying APH(3′)-I; assay: MIC broth microdilution, APH(3′)-I; assay type: cell-based; settings: IMM Univ. Zurich
Description: as §1
(§6) Minimal inhibitory concentrations (MICs, […]) against clinical isolates from Institute of Medical Microbiology, Univ. Zurich, and the IC50 values for bacterial, human mitochondrial and human cytosolic ribosomes are indicated.

[13] = tested on: AG225, Acinetobacter baumannii pittii; assay: MIC reference strain AG225; assay type: cell-based; settings: reference strain
Summary of the method: as §2

[14] = tested on: AG032 P. aer. APH(3′)-II; assay: Antibacterial activity, clinical isolate AG032; assay type: cell-based; set-up: unit not given here
Description: as §1
(§7) Table 4 and 5 show the antibacterial activity of the compounds of the invention against bacterial reference strains (table 4) and against representative clinical isolates (table 5).

[15] = tested on: AG031 P. aer. APH(3′)-II; assay: Antibacterial activity, clinical isolate AG031; assay type: cell-based; set-up: unit not given here
Summary of the method: as §3

[16] = tested on: AG033 P. aer. APH(3′)-II AAC(6′)-I; assay: Antibacterial activity, clinical isolate AG033; assay type: cell-based; set-up: unit not given here
Description: as §1, §7

[17] = tested on: Engineered E. coli pH424 armA; assay: Activity against G1405-methylated 16S-rRNA, E. coli pH424 armA; assay type: cell-based
Summary of the method: as §4

[18] = tested on: AG042 MRSA AAC(6′)-I ANT(4′)-I APH(2′); assay: Antibacterial activity, clinical isolate AG042; assay type: cell-based; set-up: unit not given here
Description: as §1, §7

[19] = tested on: AG212, Escherichia coli ATCC25922; assay: MIC reference strain AG212; assay type: cell-based; settings: reference strain ATCC25922
Summary of the method: as §2

[20] = tested on: Engineered E. coli AG103 armA; assay: Activity against G1405-methylated 16S-rRNA, E. coli AG103 armA; assay type: cell-based
Description: as §1

[21] = tested on: clinical isolates carrying AAC(3)-IV; assay: MIC broth microdilution, AAC(3)-IV; assay type: cell-based; settings: for MIC: read-out: MIC AAC(3)-IV
Summary of the method: (§8)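 Clinical isolates supplied by the Zurich Institute of Medical Microbiology were tested for MIC (μg/ml) using CLSI M07-A10 broth microdilution.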

[22] = tested on: AG055 E. coli WT; assay: Antibacterial activity, clinical isolate AG055; assay type: cell-based; set-up: unit not given here
Description: as §1, §7

[23] = tested on: clinical isolates carrying APH(3′)-VI; assay: MIC broth microdilution, APH(3′)-VI; assay type: cell-based; settings: IMM Univ. Zurich
Description: as §1, §6

[24] = tested on: clinical isolates carrying APH(3′)-II; assay: MIC broth microdilution, APH(3′)-II; assay type: cell-based; settings: read-out: MIC APH(3′)-II
Description: as §1, §6

[25] = tested on: Engineered E. coli pH425 rmtB; assay: Activity against G1405-methylated 16S-rRNA, E. coli pH425 rmtB; assay type: cell-based
Description: as §1

[26] = tested on: AG163 E. coli APH(3′)-I; assay: Antibacterial activity, clinical isolate AG163; assay type: cell-based; set-up: unit not given here
Description: as §1, §7

[27] = tested on: AG003 E. coli AAC(3)-II; assay: Antibacterial activity, clinical isolate AG003; assay type: cell-based; set-up: unit not given here
Description: as §1, §7

[28] = tested on: AG001 E. coli WT; assay: Antibacterial activity, clinical isolate AG001; assay type: cell-based; set-up: unit not given here
Summary of the method: as §3

[29] = tested on: bacterial ribosomes; assay: in-vitro translation assay, bacterial ribosomes; assay type: biochemical
Summary of the method: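 Cell-free translation; IC50 read-out. Mito = human chimeric ribosomes; cytosolic = rabbit reticulocyte ribosomes; bacterial ribosomes run in the same assay format.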

[30] = tested on: AG039 MRSA AAC(6′)-I ANT(4′)-I; assay: Antibacterial activity, clinical isolate AG039; assay type: cell-based
Description: as §1, §7

[31] = tested on: E. coli AG153 AAC(3)-II APH(3′)-II rmtB; assay: Activity against G1405-methylated 16S-rRNA, clinical isolate AG153; assay type: cell-based; set-up: unit not given here
Description: as §1

[32] = tested on: A baum. AG227 APH(3′)-I armA; assay: Activity against G1405-methylated 16S-rRNA, clinical isolate AG227; assay type: cell-based
Description: as §1

[33] = tested on: SZ380, Mycobacterium smegmatis; assay: MIC reference strain SZ380; assay type: cell-based; settings: reference strain
Summary of the method: as §2

[34] = tested on: isolates carrying apmA; assay: MIC broth microdilution, apmA; assay type: cell-based; settings: apmA resistance gene
Summary of the method: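 Clinical isolates carrying apmA, from the University of Zurich Institute of Medical Microbiology, were tested by broth microdilution following CLSI M07-A10; values are MICs in μg/ml.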

[35] = tested on: WT clinical isolates; assay: MIC broth microdilution, WT; assay type: cell-based; settings: wild type
Summary of the method: as §8

[36] = tested on: Enterob. AG302 AAC(3)-II AAC(6′)-I rmtC; assay: Activity against G1405-methylated 16S-rRNA, clinical isolate AG302; assay type: cell-based
Description: as §1

[37] = tested on: K. pneum. AG269 AAC(3)-II AAC(6′)-I rmtB; assay: Activity against G1405-methylated 16S-rRNA, clinical isolate AG269; assay type: cell-based
Description: as §1

[38] = tested on: clinical isolates carrying APH(3′)-III; assay: MIC broth microdilution, APH(3′)-III; assay type: cell-based; settings: IMM Univ. Zurich
Description: as §1, §6

[39] = clinical isolates, IMM Univ. Zurich, AAC(3)-IV

SMILES | Activity E. coli pH426 rmtC [1] | Antibacterial activity AG173 E. coli AAC(3)-IV [3] | Activity E. coli pH427 rmtF [4] | Activity E. coli pH430 WT [6] | pIC50 [7] | Antibacterial activity AG038 MRSA [8] | pIC50 [9] | MIC [12] | Antibacterial activity AG032 P. aer. APH(3′)-II [14] | Antibacterial activity AG031 P. aer. APH(3′)-II [15] | Antibacterial activity AG033 P. aer. APH(3′)-II AAC(6′)-I [16] | Activity E. coli pH424 armA [17] | Antibacterial activity AG042 MRSA AAC(6′)-I ANT(4′)-I APH(2′) [18] | Activity E. coli AG103 armA [20] | MIC [21, 39] | Antibacterial activity AG055 E. coli WT [22] | MIC [23] | Activity E. coli pH425 rmtB [25] | Antibacterial activity AG163 E. coli APH(3′)-I [26] | pIC50 [29] | also measured
CNC1C(OC2OC(CO)C(N)C(O)C2O)OC2CC(N)C(OC3C(N)CC(N)C(O)C3OC3OC(CO)C(O)C3O)OC2C1O [DC131, 5-O—(β-D-Ribefuranosyl) apramycin] | 4 | 16-32 | 4 | 4 | 3.50 | 64 | 3.53 | 64 µg/mL (≈ 95.3 µM) | 64-128 | 64-128 | 128 | 2 | 64 | 1 | > 32 µg/mL | 16-32 | 4 µg/mL (≈ 5.96 µM) | 4 | 8-16 | 6.96 | MIC ([2]; Klebsiella pneumoniae, read-out: MIC AG215 K. pneumonia): 2 µg/mL; MIC ([5]; Pseudomonas aeruginosa, ATCC27853, reference strain ATCC27853, read-out: MIC AG220 P. aeruginosa): 64 µg/mL; MIC ([10]; read-out: MIC ATCC19977 M. abcessus): 16 µg/mL (≈ 23.8 µM); MIC ([11]; Enterobacter cloacae, read-out: MIC AG290 E. cloacae): 4 µg/mL; MIC ([13]; Acinetobacter baumannii, read-out: MIC AG225 A. baumannii): 16 µg/mL; MIC ([19]; Escherichia coli, read-out: MIC AG212 E. coli): 8 µg/mL; activity against the IMM clinical isolates carrying the gene for AAC(3)-IV [21]: no activity; MIC ([24]; clinical isolates, IMM Univ. Zurich, APH(3′)-II): 8 µg/mL (≈ 11.9 µM); Antibacterial activity AG003 E. coli AAC(3)-II [27]: 16; Antibacterial activity AG001 E. coli WT [28]: 16; Antibacterial activity AG039 MRSA AAC(6′)-I ANT(4′)-I [30]: 64
CNC1C(OC2OC(CO)C(N)C(O)C2O)OC2CC(N)C(OC3C(N)CC(NC(=O)C(O)CCN)C(O)C3O)OC2C1O (centres unmarked) [DC176] | 4 | 2-4 | 4 | 2 | 3.49 | 4-8 | 3.78 | – | 32 | 16 | >32 | 2 | 8 | 0.25-0.5 | – | 8 | – | 2 | 4 | 6.96 | MIC AG215 K. pneumonia [2]: 2 µg/mL; MIC AG220 P. aeruginosa ([5]; reference strain ATCC27853): 16 µg/mL; MIC ATCC19977 M. abcessus ([10]; reference strain): 2 µg/mL (≈ 3.12 µM); MIC AG290 E. cloacae [11]: 4 µg/mL; Activity E. coli AG153 AAC(3)-II APH(3′)-II rmtB [31]: 4; MIC AG225 A. baumannii [13]: 8 µg/mL; Activity A baum. AG227 APH(3′)-I armA [32]: 2; MIC SZ380 M. smegmatis [33]: 0.5 µg/mL; MIC AG212 E. coli [19]: 2 to 4 µg/mL; MIC apmA [34]: 16 µg/mL (≈ 25 µM); MIC WT ([35]; clinical isolates, IMM Univ. Zurich): 2 µg/mL (≈ 3.12 µM); Activity Enterob. AG302 AAC(3)-II AAC(6′)-I rmtC [36]: 2; MIC AAC(3)-IV [21, 39]: 4 µg/mL (≈ 6.24 µM); Antibacterial activity AG003 E. coli AAC(3)-II [27]: 4; Antibacterial activity AG001 E. coli WT [28]: 4; Activity K. pneum. AG269 AAC(3)-II AAC(6′)-I rmtB [37]: 2; Antibacterial activity AG039 MRSA AAC(6′)-I ANT(4′)-I [30]: 4-8
NC[C@@H]1O[C@H](O[C@H]2[C@@H](O)[C@H](O[C@@H]3[C@@H](O)[C@H](N)C[C@H](N)[C@H]3O[C@H]3O[C@H](CO)[C@@H](O)[C@H](O)[C@H]3N)O[C@@H]2CO)[C@H](N)[C@@H](O)[C@@H]1O [paromomycin, reference compound] | – | – | – | – | 4.72 | – | 4.07 | > 128 µg/mL | – | – | – | – | – | – | 128 µg/mL (≈ 208 µM) | – | > 128 µg/mL | – | – | 7.70 | MIC [38]: > 128 µg/mL; MIC ([35]; read-out: MIC WT, clinical isolates, IMM Univ. Zurich): 1 to 2 µg/mL (≈ 1.62 to 3.25 µM); MIC [24]: > 128 µg/mL
